Source: ChEMBL document CHEMBL5537136 (J Med Chem, 2024)
Active and inactive are the calls of the source. The rule behind the calls is not given here.

What was measured:
[1] = system: CT26; assay: Induction of anti-tumor immunity in mouse CT26 cells assessed as increase in IFN-beta mRNA expression incubated for 2 days by quantitative real-time PCR analysis; assay type: functional, cell-based; conditions: dose 0.04-0.44 µM, time 2.0 day
[2] = target: T1, Poly [ADP-ribose] polymerase tankyrase-2 (Homo sapiens, UniProt Q9H2K2); assay: Inhibition of TNKS2 (unknown origin) measured after 1 hr incubation by microplate reader assay
T1 sequence (Q9H2K2 whole entry): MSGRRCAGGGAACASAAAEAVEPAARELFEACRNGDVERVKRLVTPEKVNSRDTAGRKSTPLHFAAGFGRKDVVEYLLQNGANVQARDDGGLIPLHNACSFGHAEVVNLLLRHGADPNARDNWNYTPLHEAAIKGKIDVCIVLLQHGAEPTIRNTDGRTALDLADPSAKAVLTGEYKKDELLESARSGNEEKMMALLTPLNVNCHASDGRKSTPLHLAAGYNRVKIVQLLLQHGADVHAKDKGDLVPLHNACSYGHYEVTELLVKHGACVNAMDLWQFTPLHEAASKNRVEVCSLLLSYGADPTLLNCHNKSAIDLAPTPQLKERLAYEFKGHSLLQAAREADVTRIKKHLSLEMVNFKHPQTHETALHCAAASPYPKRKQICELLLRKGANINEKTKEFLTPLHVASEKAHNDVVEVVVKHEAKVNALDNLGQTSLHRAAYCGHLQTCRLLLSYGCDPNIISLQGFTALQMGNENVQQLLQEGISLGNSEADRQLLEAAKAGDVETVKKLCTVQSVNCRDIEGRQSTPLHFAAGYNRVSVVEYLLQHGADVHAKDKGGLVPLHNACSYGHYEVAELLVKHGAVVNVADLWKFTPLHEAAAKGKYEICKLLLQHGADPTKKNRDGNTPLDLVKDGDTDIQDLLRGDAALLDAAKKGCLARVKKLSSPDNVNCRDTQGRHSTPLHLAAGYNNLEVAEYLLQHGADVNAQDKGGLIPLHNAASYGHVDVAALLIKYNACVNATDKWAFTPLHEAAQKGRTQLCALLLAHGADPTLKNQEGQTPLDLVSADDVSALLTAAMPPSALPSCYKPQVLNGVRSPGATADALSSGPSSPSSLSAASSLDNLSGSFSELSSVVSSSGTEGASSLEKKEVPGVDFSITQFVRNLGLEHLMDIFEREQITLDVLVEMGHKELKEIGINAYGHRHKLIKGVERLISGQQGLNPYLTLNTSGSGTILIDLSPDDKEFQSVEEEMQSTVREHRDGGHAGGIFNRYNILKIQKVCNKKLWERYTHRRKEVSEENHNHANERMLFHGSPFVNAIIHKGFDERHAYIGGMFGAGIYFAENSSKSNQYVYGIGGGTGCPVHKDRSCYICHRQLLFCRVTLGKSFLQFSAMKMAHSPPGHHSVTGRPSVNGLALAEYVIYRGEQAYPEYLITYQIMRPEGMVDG

[3] = AUC (0 to infinity) in ICR mouse at 10 mg/kg, IG measured upto 24 hrs by LC-MS/MS analysis; assay type: ADME, organism-based; conditions: in vivo, po
[4] = system: CT26; assay: Induction of anti-tumor immunity in mouse CT26 cells assessed as increase in CXCL10 mRNA expression incubated for 2 days by quantitative real-time PCR analysis; assay type: functional, cell-based; conditions: dose 0.04-0.44 µM, time 2.0 day
[5] = Tmax in ICR mouse at 10 mg/kg, IG measured upto 24 hrs by LC-MS/MS analysis; assay type: ADME, organism-based; conditions: in vivo, po
[6] = Toxicity in Balb/c mouse bearing mouse CT26 cells assessed as morphological changes in lung at 6.25 to 25 mg/kg, IG measured after 14 days by hematoxylin and eosin staining based assay; assay type: organism-based; conditions: in vivo, po, 336 h, dose 6.25-25 mg/kg, time 14 day
[7] = Clearance in ICR mouse at 1 mg/kg, iv measured upto 24 hrs by LC-MS/MS analysis; assay type: ADME, organism-based; conditions: in vivo
[8] = MRT (0 to infinity) in ICR mouse at 10 mg/kg, IG measured upto 24 hrs by LC-MS/MS analysis; assay type: ADME, organism-based; conditions: in vivo, po
[9] = system: CT26; assay: cells; conditions: Mus musculus, CT26, 144 h
[10] = Antiproliferative activity against mouse AML12 cells measured after 6 days incubation by MTT assay; assay type: toxicity, cell-based
[11] = system: CT26; assay: Antitumor activity against mouse CT26 cells implanted in Balb/c mouse assessed as increase in infiltration of CD3 positive CD8 positive T lymphocytes in tumors at 25 mg/kg, IG measured after 14 days by flow cytometry; assay type: functional, organism-based; conditions: time 14.0 day
[12] = system: CT26; assay: Antitumor activity in immunocompetent mouse CT26 cell bearing Balb/c mouse model assessed as reduction in Ki-67 protein expression level in tumor tissue at 6.25 to 25 mg/kg, IG treated twice a day measured after 14 days; assay type: functional, organism-based; conditions: dose lower 6.25 mg/kg, dose upper […], time 14.0 day
[13] = Half life in ICR mouse at 10 mg/kg, IG measured upto 24 hrs by LC-MS/MS analysis; assay type: ADME, organism-based; conditions: in vivo, po
[14] = system: CT26; assay: Antitumor activity in immunocompetent mouse CT26 cell bearing mouse model assessed as tumor growth inhibition at 25 mg/kg, IG treated twice a day measured after 14 days relative to control; assay type: functional; conditions: CT26, po, 336 h, time 14 day, read-out: TGI
[15] = system: CT26; assay: Antitumor activity in immunocompetent mouse CT26 cell bearing Balb/c mouse model assessed as induction of IFN-beta release in tumor tissue at 6.25 to 25 mg/kg, IG treated twice a day measured after 14 days by immunohistochemistry staining based assay; assay type: functional, organism-based; conditions: dose lower 6.25 mg/kg, dose upper […], time 14.0 day
[16] = system: CT26; assay: Antitumor activity in immunocompetent mouse CT26 cell bearing mouse model assessed as tumor growth inhibition at 6.25 mg/kg, IG treated twice a day measured after 14 days relative to control; assay type: functional; conditions: CT26, po, 336 h, time 14 day, read-out: TGI
[17] = Tmax in ICR mouse at 1 mg/kg, iv measured upto 24 hrs by LC-MS/MS analysis; assay type: ADME, organism-based; conditions: in vivo
[18] = Permeability across apical to basolateral side in human Caco-2 cells; assay type: ADME, cell-based
[19] = Toxicity in Balb/c mouse bearing mouse CT26 cells assessed as morphological changes in heart at 6.25 to 25 mg/kg, IG measured after 14 days by hematoxylin and eosin staining based assay; assay type: organism-based; conditions: in vivo, po, 336 h, dose 6.25-25 mg/kg, time 14 day
[20] = target: Cytochrome P450 2C9 (Homo sapiens, UniProt P11712); assay: Inhibition of CYP2C9 (unknown origin); assay type: ADME
[21] = target: T2, Protein mono-ADP-ribosyltransferase PARP11 (Homo sapiens, UniProt Q9NR21); assay: Inhibition of PARP11 (unknown origin) measured after 1 hr incubation by microplate reader assay
T2 sequence (Q9NR21 whole entry): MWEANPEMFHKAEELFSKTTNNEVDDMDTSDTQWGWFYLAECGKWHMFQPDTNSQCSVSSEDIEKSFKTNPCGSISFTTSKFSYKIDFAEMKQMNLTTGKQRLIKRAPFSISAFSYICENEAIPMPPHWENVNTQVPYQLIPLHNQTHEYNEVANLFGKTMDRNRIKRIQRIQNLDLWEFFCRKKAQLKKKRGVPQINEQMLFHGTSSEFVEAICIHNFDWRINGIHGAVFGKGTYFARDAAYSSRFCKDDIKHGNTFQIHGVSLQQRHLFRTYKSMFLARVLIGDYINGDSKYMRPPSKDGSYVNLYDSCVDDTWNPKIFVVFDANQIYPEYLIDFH

Sequence of Cytochrome P450 2C9 (P11712 whole entry): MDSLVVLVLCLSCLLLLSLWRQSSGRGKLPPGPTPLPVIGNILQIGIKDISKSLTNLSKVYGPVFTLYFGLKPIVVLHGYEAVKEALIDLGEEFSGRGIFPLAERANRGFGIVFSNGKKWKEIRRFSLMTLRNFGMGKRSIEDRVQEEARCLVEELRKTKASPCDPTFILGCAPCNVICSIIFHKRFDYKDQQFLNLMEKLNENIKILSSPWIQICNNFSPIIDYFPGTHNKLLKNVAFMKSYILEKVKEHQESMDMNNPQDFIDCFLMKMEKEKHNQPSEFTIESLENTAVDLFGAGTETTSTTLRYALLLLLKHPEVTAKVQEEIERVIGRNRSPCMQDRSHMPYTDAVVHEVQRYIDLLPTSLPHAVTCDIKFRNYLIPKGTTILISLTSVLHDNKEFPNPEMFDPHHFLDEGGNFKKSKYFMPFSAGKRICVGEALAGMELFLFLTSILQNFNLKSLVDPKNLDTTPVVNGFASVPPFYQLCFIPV

Question: With `C[C@@H](C(=O)N1CCN(c2ncc(C(F)(F)F)cn2)CC1)n1cc2cccc(C(N)=O)c2n1` as the compound, how does the Activity [1] read?
Answer: Dose-Dependent Effect

Question: What about the IC50 [2] of the same compound?
Answer: 0.694 µM

Question: And the AUC(0-inf) [3]?
Answer: 17000 ng·h/mL

Question: What about the Activity [4] of the same compound?
Answer: Dose-Dependent Effect

Question: What about the Tmax [5] of the same compound?
Answer: 0.5 h

Question: What about the Activity [6] of the same compound?
Answer: Non-Toxic

Question: And the clearance [7]?
Answer: 9.62 mL/min/kg

Question: And the MRT inf [8]?
Answer: 2.52 h

Question: What about the IC50 [9] of the same compound?
Answer: 16.2 µM

Question: What about the IC50 at 6 days [10] of the same compound?
Answer: > 50 µM

Question: And the Activity [11]?
Answer: Active

Question: What about the Activity [12] of the same compound?
Answer: Active

Question: What about the half-life [13] of the same compound?
Answer: 1.76 h

Question: What about the inhibition in vivo at 25 mg/kg [14] of the same compound?
Answer: 83%

Question: What about the Activity [15] of the same compound?
Answer: Active

Question: What about the inhibition in vivo at 6.25 mg/kg [16] of the same compound?
Answer: 42%

Question: And the Tmax [17]?
Answer: 4.8 min

Question: What about the Papp A→B [18] of the same compound?
Answer: 25.7 ×10⁻⁶ cm/s

Question: What about the Activity [19] of the same compound?
Answer: Non-Toxic

Question: What about the IC50 [20] of the same compound?
Answer: > 30 µM

Question: And the IC50 [21]?
Answer: > 5 µM
